Common to all, as to assay type: in vivo
In data set [1] the test system is Amaranthus retroflexus. Put plainly: Weed foliar treatment test (Test 3, 1.0 to 2.0 leaf stage). As to conditions: foliar spray at 1.0 to 2.0 leaf stage of Digitaria ciliaris, 3 weeks. As to the method:
(§1) Soil was filled into a 1/6000 are pot followed by seeding with Digitaria ciliaris, Chenopodium album and Amaranthus retroflexus, covering with soil, and cultivating in a glass greenhouse at an average atmospheric temperature of 25° C. Wettable powders of Target Compound (I) shown in Table 1 prepared in compliance with the preparation examples were diluted with water to the prescribed amount of chemical and uniformly sprayed onto the weeds using 150 liters of sprayed water per 10 are when Digitaria ciliaris had grown to the 1.0 to 2.0 leaf stage. After treating for 3 weeks in a glass greenhouse at an average atmospheric temperature of 25° C., the herbicidal efficacy thereof was investigated. Evaluation of herbicidal efficacy was carried out in the same manner as the above-mentioned Test Example 1.

Data set [2] relates to Chenopodium album. The description is as above. The settings on record: foliar spray at 1.0 to 2.0 leaf stage of Digitaria ciliaris, 3 weeks. As to the method:
as §1

Data set [3] has as its system Digitaria ciliaris. Described as above. The settings on record: foliar spray at 1.0 to 2.0 leaf stage of Digitaria ciliaris, 3 weeks. How it is done: as §1
Data set [4] has as its system Galinsoga parviflora. The data set is described as follows: Weed foliar treatment test (Test 4, 4.0 to 5.0 leaf stage). The settings on record: 10 g a.i./10 a; foliar spray at 4.0 to 5.0 leaf stage of Digitaria ciliaris; 20 days. As to the method: (§2) Field soil was filled into a 1/4500 are pot followed by seeding with Digitaria ciliaris and Galinsoga parviflora, covering with soil and cultivating in a glass greenhouse at an average atmospheric temperature of 25° C.
(§3) Wettable powders of Target Compound (I) shown in Table 1 prepared in compliance with the preparation examples were diluted with water to the prescribed amount of chemical and uniformly sprayed onto the weeds using 100 liters of sprayed water per 10 are when Digitaria ciliaris had grown to the 4.0 to 5.0 leaf stage (plant height: 10 cm to 15 cm).
(§4) After treating for 20 days in a glass greenhouse at an average atmospheric temperature of 25° C., the herbicidal efficacy thereof was investigated.
(§5) Evaluation of herbicidal efficacy was carried out in the same manner as the above-mentioned Test Example 1.

Data set [5] deals with Digitaria ciliaris. The data set is described as above. The settings on record: 10 g a.i./10 a; foliar spray at 4.0 to 5.0 leaf stage of Digitaria ciliaris (plant height 10 cm to 15 cm); 20 days. How it is done: as §2, §3, §4, §5
The subject of data set [6] is Monochoria vaginalis. The data set is described as follows: Paddy herbicidal activity test. The settings on record: irrigated pot, 30 days. As to the method: (§6) 1. Paddy Herbicidal Activity Test Rice paddy soil was filled into a 1/10000 are pot followed by the addition of suitable amounts of water and chemical fertilizer, kneading, seeding with Echinochloa crus-galli, Monochoria vaginalis and Scirpus juncoides and maintaining in an irrigated state at a water depth of 3 cm. Wettable powders of Target Compound (I) shown in Table 1 prepared in compliance with the preparation examples were diluted with a suitable amount of water, rice plants in the 2.0 leaf stage were transplanted during 3.5 leaf stage of Echinochloa crus-galli, and treated by dropping in chemical in the prescribed amount per 10 are using a pipette. After treating for 30 days in a glass greenhouse at an average atmospheric temperature of 30° C., the herbicidal efficacy thereof was investigated. Evaluation of herbicidal efficacy was carried out by comparing growth inhibition rate (%) with an untreated group, while evaluation of phytotoxicity was carried out by comparing growth inhibition rate (%) with the state of a complete eradication group, and were evaluated at 11 levels indicated below.

In data set [7] the test system is Echinochloa crus-galli. Put plainly: Paddy herbicidal activity test. The settings on record: irrigated pot, treated at 3.5 leaf stage of Echinochloa crus-galli, 30 days. How it is done: as §6
Data set [8] has as its system Scirpus juncoides. Put plainly: Paddy herbicidal activity test. The settings on record: irrigated pot, 30 days. As to the method: as §6
The subject of data set [9] is Amaranthus retroflexus. Put plainly: Farming soil treatment test. The settings on record: soil surface spray prior to weed growth, 30 days. How it is done:
(§7) Field soil was filled into a 1/6000 are pot followed by seeding with Digitaria ciliaris, Chenopodium album and Amaranthus retroflexus and covering with soil. Wettable powders of compounds of formula (I) shown in Table 1 prepared in compliance with the preparation examples were diluted with water to the prescribed amount of chemical and uniformly sprayed onto each soil surface layer using 100 liters of sprayed water per 10 are prior to weed growth following seeding. After treating for 30 days in a glass greenhouse at an average atmospheric temperature of 30° C., the herbicidal efficacy thereof was investigated. Evaluation of herbicidal efficacy was carried out in the same manner as the above-mentioned Test Example 1.

Data set [10] has as its system Chenopodium album. The data set is described as follows: Farming soil treatment test. The settings on record: soil surface spray prior to weed growth, 30 days. How it is done:
as §7

For data set [11], the system named is Digitaria ciliaris. The data set is described as follows: Farming soil treatment test. As to conditions: soil surface spray prior to weed growth, 30 days. As to the method: as §7
For data set [12], the system named is Oryza sativa. The data set is described as follows: Paddy herbicidal activity test, phytotoxicity to transplanted rice. As to conditions: rice transplanted in 2.0 leaf stage, 30 days. How it is done:
as §6

Take `N#Cc1cnn(-c2nn3c(c2Cl)CCCC3)c1/C=C/c1ncccn1` [Compound 3.39, reference compound]: the “herbicidal efficacy, Amaranthus retroflexus” value in data set [1] (5 g a.i./10 a) is 1 (10% to less than 20%); in data set [1] (10 g a.i./10 a) it was 2 (20% to less than 30%); in data set [9] (5 g a.i./10 a), 2 (20% to less than 30%); in data set [9] (10 g a.i./10 a), 3 (30% to less than 40%). In addition, the “herbicidal efficacy, Chenopodium album” value in data set [2] (5 g a.i./10 a) is reported as 4 (40% to less than 50%); in [2] (10 g a.i./10 a), 5 (50% to less than 60%); in data set [10] (5 g a.i./10 a), 4 (40% to less than 50%); in data set [10] (10 g a.i./10 a), 4 (40% to less than 50%). For the same compound, the “herbicidal efficacy, Digitaria ciliaris” value is listed as 2 (20% to less than 30%) in data set [3] (5 g a.i./10 a); 3 (30% to less than 40%) in data set [3] (10 g a.i./10 a); 2 (20% to less than 30%) in data set [5]; 3 (30% to less than 40%) in [11] (5 g a.i./10 a); 4 (40% to less than 50%) in data set [11] (10 g a.i./10 a). Moreover, the “herbicidal efficacy, Galinsoga parviflora” value in data set [4] was 3 (30% to less than 40%). Also, the “herbicidal efficacy, Monochoria vaginalis” value in data set [6] (1 g a.i./10 a) is 2 (20% to less than 30%); in data set [6] (5 g a.i./10 a), 3 (30% to less than 40%). Further, the “herbicidal efficacy, Echinochloa crus-galli” value in data set [7] (1 g a.i./10 a) is listed as 1 (10% to less than 20%); in data set [7] (5 g a.i./10 a), 2 (20% to less than 30%). Also, the “herbicidal efficacy, Scirpus juncoides” value in [8] (1 g a.i./10 a) and in data set [8] (5 g a.i./10 a) was 0 (0% to less than 10% (growth inhibition rate)) throughout. Further, the results for the “phytotoxicity, Oryza sativa” value in data set [12] (1 g a.i./10 a) and in [12] (5 g a.i./10 a) were 0 (0% to less than 10% (growth inhibition rate)) and 1 (10% to less than 20%), respectively.

Take `N#Cc1cnn(-c2nn3c(c2Cl)CCCC3)c1/C=C/c1ccccn1` [Compound 3.43, reference compound]: the “herbicidal efficacy, Amaranthus retroflexus” value in data set [1] (5 g a.i./10 a) is 0 (0% to less than 10% (growth inhibition rate)); in data set [1] (10 g a.i./10 a), 2 (20% to less than 30%); in [9] (5 g a.i./10 a) it was 2 (20% to less than 30%); in data set [9] (10 g a.i./10 a), 2 (20% to less than 30%). The “herbicidal efficacy, Chenopodium album” value in data set [2] (5 g a.i./10 a) was 3 (30% to less than 40%); in data set [2] (10 g a.i./10 a) it was 4 (40% to less than 50%); in data set [10] (5 g a.i./10 a), 2 (20% to less than 30%); in data set [10] (10 g a.i./10 a) it was 3 (30% to less than 40%). Moreover, the “herbicidal efficacy, Digitaria ciliaris” value is 1 (10% to less than 20%) in data set [3] (5 g a.i./10 a); 3 (30% to less than 40%) in [3] (10 g a.i./10 a); 1 (10% to less than 20%) in data set [5]; 1 (10% to less than 20%) in [11] (5 g a.i./10 a); 3 (30% to less than 40%) in data set [11] (10 g a.i./10 a). The “herbicidal efficacy, Galinsoga parviflora” value in [4] is 3 (30% to less than 40%). Besides, the “herbicidal efficacy, Monochoria vaginalis” value in [6] (1 g a.i./10 a) and in data set [6] (5 g a.i./10 a) was 3 (30% to less than 40%) in each case. Also, the “herbicidal efficacy, Echinochloa crus-galli” value in data set [7] (1 g a.i./10 a) is given as 2 (20% to less than 30%); in data set [7] (5 g a.i./10 a), 3 (30% to less than 40%). The “herbicidal efficacy, Scirpus juncoides” value is reported as 0 (0% to less than 10% (growth inhibition rate)) in data set [8] (1 g a.i./10 a) and 1 (10% to less than 20%) in data set [8] (5 g a.i./10 a). Moreover, the results for the “phytotoxicity, Oryza sativa” value in data set [12] (1 g a.i./10 a) and in [12] (5 g a.i./10 a) were 1 (10% to less than 20%) and 2 (20% to less than 30%), respectively.

For the origin of these results see patent publication US10165777B2, “Substituted pyrazolylpyrazole derivative and use of same as herbicide” (KYOYU AGRI CO., LTD., priority 2015, dated 2019).
